Results reported in US8791129B2, “Phenylquinazoline derivatives” (Merck Patent GmbH, priority 2010, dated 2014).

Target: T1, Recombinant human HSP90α (Homo sapiens, UniProt P07900)
T1 construct: host or cells: E. coli
Assay: Radioligand filter binding test with [3H]17AAG for the measurement of HSP90 inhibitors
Conditions: competition with [3H]17AAG 0.08 μM; HSP90 1.5 μg/assay; 22° C., 30 min; read-out: IC50 (HSP90 inhibition)
From the text: Test Method for the Measurement of HSP90 Inhibitors
The binding of geldanamycin or 17-allylamino-17-demethoxygeldanamycin (17AAG) to HSP90 and competitive inhibition thereof can be utilised in order to determine the inhibitory activity of the compounds according to the invention (Carreras et al. 2003, Chiosis et al. 2002).
In the specific case, a radioligand filter binding test is used. The radioligand used here is tritium-labelled 17-allylaminogeldanamycin, [3H]17AAG. This filter binding test allows a targeted search for inhibitors which interfere with the ATP binding site.
Recombinant human HSP90α (E. coli expressed, 95% purity);
[3H]17AAG (17-allylaminogeldanamycin, [allylamino-2,3-^3H. Specific activity: 1.11×10^12 Bq/mmol (Moravek, MT-1717);
HEPES filter buffer (50 mM HEPES, pH 7.0, 5 mM MgCl2, BSA 0.01%)
Multiscreen FB (1 μm) filter plate (Millipore, MAFBNOB 50).
The 96-well microtitre filter plates are firstly irrigated and coated with 0.1% of polyethyleneimine.
The test is carried out under the following conditions:
Reaction temperature 22° C.
Reaction time: 30 min., shaking at 800 rpm
50 mM HEPES HCl, pH 7.0, 5 mM MgCl2, 0.01% (w/v) of BSA
At the end of the reaction, the supernatant in the filter plate is removed by suction with the aid of a vacuum manifold (Multiscreen Separation System, Millipore), and the filter is washed twice.
The filter plates are then measured in a beta counter (Microbeta, Wallac) with scintillator (Microscint 20, Packard).
“% of control” is determined from the “counts per minutes” values, and the IC-50 value of a compound is calculated therefrom.

| IC50 [nM] | SMILES |
| --- | --- |
| 10 to 1000 | CN(CCO)Cc1ccccc1-c1ccc2nc(N)nc(C(=O)N3Cc4ccccc4C3)c2c1 |
| 10 to 1000 | CCN(CCO)Cc1ccccc1-c1ccc2nc(N)nc(C(=O)N3Cc4ccccc4C3)c2c1 |
| 10 to 1000 | Nc1nc(C(=O)N2Cc3ccccc3C2)c2cc(-c3ccccc3CN3CCC(O)CC3)ccc2n1 |
| 10 to 1000 | CC(C)(C)NCc1ccccc1-c1ccc2nc(N)nc(C(=O)N3Cc4ccccc4C3)c2c1 |
| 10 to 1000 | Nc1nc(C(=O)N2Cc3ccccc3C2)c2cc(-c3ccccc3CN3CCCC3)ccc2n1 |
| 10 to 1000 | CC1CCCN1Cc1ccccc1-c1ccc2nc(N)nc(C(=O)N3Cc4ccccc4C3)c2c1 (centres unmarked) |
| 10 to 1000 | Nc1nc(C(=O)N2Cc3ccccc3C2)c2cc(-c3ccccc3CN3CCC(CO)C3)ccc2n1 (centres unmarked) |
| 10 to 1000 | Nc1nc(C(=O)N2Cc3ccccc3C2)c2cc(-c3ccccc3CN3CCC(O)C3)ccc2n1 (centres unmarked) |
| 10 to 1000 | Nc1nc(C(=O)N2Cc3ccccc3C2)c2cc(-c3ccccc3CN3CCC(N)C3)ccc2n1 (centres unmarked) |
| 10 to 1000 | CCN(C)Cc1ccccc1-c1ccc2nc(N)nc(C(=O)N3Cc4ccccc4C3)c2c1 |
| 10 to 1000 | CCN(CC)Cc1ccccc1-c1ccc2nc(N)nc(C(=O)N3Cc4ccccc4C3)c2c1 |
| 10 to 1000 | CNC(=O)C1CCCN1Cc1ccccc1-c1ccc2nc(N)nc(C(=O)N3Cc4ccccc4C3)c2c1 (centres unmarked) |
| 10 to 1000 | Nc1nc(C(=O)N2Cc3ccccc3C2)c2cc(-c3ccccc3CN3CCCC3C(=O)NCCO)ccc2n1 (centres unmarked) |
| 10 to 1000 | Nc1nc(C(=O)N2Cc3ccccc3C2)c2cc(-c3ccccc3CNC3CC3)ccc2n1 |
| 10 to 1000 | Nc1nc(C(=O)N2Cc3ccccc3C2)c2cc(-c3ccccc3CNC3CCC3)ccc2n1 |
| 10 to 1000 | Nc1nc(C(=O)N2Cc3ccccc3C2)c2cc(-c3ccccc3CN3CCC(F)(F)C3)ccc2n1 |
| 10 to 1000 | CC1CCC(C)N1Cc1ccccc1-c1ccc2nc(N)nc(C(=O)N3Cc4ccccc4C3)c2c1 (centres unmarked) |
| 10 to 1000 | Nc1nc(C(=O)N2Cc3ccccc3C2)c2cc(-c3ccccc3CN3CC[C@H](F)C3)ccc2n1 |
| 10 to 1000 | C[C@@H]1CCCN1Cc1ccccc1-c1ccc2nc(N)nc(C(=O)N3Cc4ccccc4C3)c2c1 |
| 10 to 1000 | CC(C)(C)NCc1cc(F)ccc1-c1ccc2nc(N)nc(C(=O)N3Cc4ccccc4C3)c2c1 |
| 10 to 1000 | CC1CCCN1Cc1cc(F)ccc1-c1ccc2nc(N)nc(C(=O)N3Cc4ccccc4C3)c2c1 (centres unmarked) |
| 10 to 1000 | CC1CCCN1Cc1ccc(F)cc1-c1ccc2nc(N)nc(C(=O)N3Cc4ccccc4C3)c2c1 (centres unmarked) |

| IC50 [nM] | SMILES |
| --- | --- |
| 10 to 1000 | CC(C)(C)NCc1ccc(F)cc1-c1ccc2nc(N)nc(C(=O)N3Cc4ccccc4C3)c2c1 |
| 10 to 1000 | NC(=O)CNCc1ccccc1-c1ccc2nc(N)nc(C(=O)N3Cc4ccccc4C3)c2c1 |
| 10 to 1000 | Nc1nc(C(=O)N2Cc3ccccc3C2)c2cc(-c3ccccc3CN(CCO)CCO)ccc2n1 |
| 10 to 1000 | C[C@H]1CCCN1Cc1ccccc1-c1ccc2nc(N)nc(C(=O)N3Cc4ccccc4C3)c2c1 |
| 10 to 1000 | CN(Cc1ccccc1-c1ccc2nc(N)nc(C(=O)N3Cc4ccccc4C3)c2c1)C1CC1 |
| 10 to 1000 | CCN(C)Cc1ccc(F)cc1-c1ccc2nc(N)nc(C(=O)N3Cc4ccccc4C3)c2c1 |
| 10 to 1000 | CN1CCN(Cc2ccc(F)cc2-c2ccc3nc(N)nc(C(=O)N4Cc5ccccc5C4)c3c2)CC1 |
| 10 to 1000 | CN1CCN(Cc2cc(F)ccc2-c2ccc3nc(N)nc(C(=O)N4Cc5ccccc5C4)c3c2)CC1 |
| 10 to 1000 | CCN(CCO)Cc1ccc(F)cc1-c1ccc2nc(N)nc(C(=O)N3Cc4ccccc4C3)c2c1 |
| 10 to 1000 | CC(C)(C)NCc1cc(F)c(F)cc1-c1ccc2nc(N)nc(C(=O)N3Cc4ccccc4C3)c2c1 |
| 10 to 1000 | CCN(C)Cc1cc(F)c(F)cc1-c1ccc2nc(N)nc(C(=O)N3Cc4ccccc4C3)c2c1 |
| 10 to 1000 | CCN(CC)Cc1cc(F)c(F)cc1-c1ccc2nc(N)nc(C(=O)N3Cc4ccccc4C3)c2c1 |
| 10 to 1000 | Nc1nc(C(=O)N2Cc3ccccc3C2)c2cc(-c3cc(F)c(F)cc3CN3CCCC3)ccc2n1 |
| 10 to 1000 | CC1CCC(C)N1Cc1cc(F)c(F)cc1-c1ccc2nc(N)nc(C(=O)N3Cc4ccccc4C3)c2c1 (centres unmarked) |
| 10 to 1000 | CC1CCCN1Cc1cc(F)c(F)cc1-c1ccc2nc(N)nc(C(=O)N3Cc4ccccc4C3)c2c1 (centres unmarked) |
| 10 to 1000 | CN(Cc1cc(F)c(F)cc1-c1ccc2nc(N)nc(C(=O)N3Cc4ccccc4C3)c2c1)C(C)(C)C |
| 10 to 1000 | CN1CCN(Cc2cc(F)c(F)cc2-c2ccc3nc(N)nc(C(=O)N4Cc5ccccc5C4)c3c2)CC1 |
| 10 to 1000 | CCN(CC)Cc1ccc(F)cc1-c1ccc2nc(N)nc(C(=O)N3Cc4ccccc4C3)c2c1 |
| 10 to 1000 | Nc1nc(C(=O)N2Cc3ccccc3C2)c2cc(-c3cc(F)ccc3CN3CCC(O)CC3)ccc2n1 |
| 10 to 1000 | CC(C)(C)NCc1cc2c(cc1-c1ccc3nc(N)nc(C(=O)N4Cc5ccccc5C4)c3c1)OCO2 |
| 1000 to 10000 | COc1cc(CO)c(-c2ccc3nc(N)nc(C(=O)N4Cc5ccccc5C4)c3c2)cc1OC |
| 10 to 1000 | NCc1cc(F)c(F)cc1-c1ccc2nc(N)nc(C(=O)N3Cc4ccccc4C3)c2c1 |

| IC50 [nM] | SMILES |
| --- | --- |
| 10 to 1000 | NCCC(=O)NCc1cc(F)c(F)cc1-c1ccc2nc(N)nc(C(=O)N3Cc4ccccc4C3)c2c1 |
| 10 to 1000 | CN(C)CCC(=O)NCc1cc(F)c(F)cc1-c1ccc2nc(N)nc(C(=O)N3Cc4ccccc4C3)c2c1 |
| 10 to 1000 | NCCC(=O)OCc1cc(F)c(F)cc1-c1ccc2nc(N)nc(C(=O)N3Cc4ccccc4C3)c2c1 |
| 10 to 1000 | CN(C)CCCOCc1cc(F)c(F)cc1-c1ccc2nc(N)nc(C(=O)N3Cc4ccccc4C3)c2c1 |
| 10 to 1000 | CN(C)CCOCc1cc(F)c(F)cc1-c1ccc2nc(N)nc(C(=O)N3Cc4ccccc4C3)c2c1 |
| 10 to 1000 | NCCCOCc1cc(F)c(F)cc1-c1ccc2nc(N)nc(C(=O)N3Cc4ccccc4C3)c2c1 |
| 10 to 1000 | Nc1nc(C(=O)N2Cc3ccccc3C2)c2cc(-c3cc(F)c(F)cc3COCCO)ccc2n1 |
| 10 to 1000 | Nc1nc(C(=O)N2Cc3ccccc3C2)c2cc(-c3cc(F)c(F)cc3COCCOCCOCCO)ccc2n1 |
| 10 to 1000 | NCCC[C@H](N)C(=O)OCc1cc(F)c(F)cc1-c1ccc2nc(N)nc(C(=O)N3Cc4ccccc4C3)c2c1 |
| 10 to 1000 | CN(C)CCC(=O)OCc1cc(F)c(F)cc1-c1ccc2nc(N)nc(C(=O)N3Cc4ccccc4C3)c2c1 |
| 10 to 1000 | NCCCC[C@H](N)C(=O)OCc1cc(F)c(F)cc1-c1ccc2nc(N)nc(C(=O)N3Cc4ccccc4C3)c2c1 |
| 10 to 1000 | NOCc1cc(F)c(F)cc1-c1ccc2nc(N)nc(C(=O)N3Cc4ccccc4C3)c2c1 |
| 10 to 1000 | Nc1nc(C(=O)N2Cc3ccccc3C2)c2cc(-c3cc(F)c(F)cc3COP(=O)(O)O)ccc2n1 |
| 10 to 1000 | NCCCCC(N)C(=O)OCc1ccc(F)cc1-c1ccc2nc(N)nc(C(=O)N3Cc4ccccc4C3)c2c1 (centres unmarked) |
| 10 to 1000 | CC(C)(C)OP(=O)(OCc1cc(F)c(F)cc1-c1ccc2nc(N)nc(C(=O)N3Cc4ccccc4C3)c2c1)OC(C)(C)C |
| 10 to 1000 | CC(C)CC(N)C(=O)OCc1cc(F)c(F)cc1-c1ccc2nc(N)nc(C(=O)N3Cc4ccccc4C3)c2c1 (centres unmarked) |
| 10 to 1000 | CC(C)(C)C(=O)OCc1cc(F)c(F)cc1-c1ccc2nc(N)nc(C(=O)N3Cc4ccccc4C3)c2c1 |
| 10 to 1000 | CC(C)(C)OC(=O)NCCCCCC(=O)OCc1cc(F)c(F)cc1-c1ccc2nc(N)nc(C(=O)N3Cc4ccccc4C3)c2c1 |
| 10 to 1000 | CC(C)(C)OC(=O)N1CCC[C@H]1C(=O)OCc1cc(F)c(F)cc1-c1ccc2nc(N)nc(C(=O)N3Cc4ccccc4C3)c2c1 |
| 10 to 1000 | NCCCC[C@H](N)C(=O)OCc1ccccc1-c1ccc2nc(N)nc(C(=O)N3Cc4ccccc4C3)c2c1 |
| 10 to 1000 | Nc1nc(C(=O)N2Cc3ccccc3C2)c2cc(-c3cc(F)c(F)cc3COC(=O)[C@@H]3CCCN3)ccc2n1 |
